Earlier results on one compound are cited in patent US20150105473A1, “AN ANTIBACTERIAL COMPOSITION WITH LOW AMOUNTS OF SURFACTANT AND ANTIBACTERIAL ACTIVES” (The Dial Corporation, priority 2013, published 2015).

Molecules are shown by their SMILES.

For `Oc1cc(Cl)ccc1Oc1ccc(Cl)cc1Cl` [triclosan], the solubility in water entry is listed as “poor solubility in water”.
